This passage reports melting point and IC50 results from US20040034028A1, “4-(biphenylcarbonylamino)piperidine derivatives as mtp inhibitors” (priority 2000, published 2004).

Usually melting point stands for the temperature, or range, at which the solid turns liquid.

For series [1], the system named is secretion of apo B in Hep G2 cells. Briefly: Inhibition of the secretion of apo B in the Hep G2 human cell line (ELISA). Format: cell-based. The conditions noted are these: HepG2, 24 hours incubation, sandwich ELISA for human apo B, read-out: IC50, concentration which produces a 50% inhibition of the secretion of apo B in the Hep G2 cells. The procedure:
Analysis of the secretion of apo B in the Hep G2 human cell line:
The activity of a compound according to the invention may be evaluated by measuring the inhibition of the secretion of apo B in Hep G2 cells.
The Hep G2 cells (ECACC—number 85011430) are used as a model in the study of the in vitro hepatic secretion of lipoproteins (Dixon J. and Ginsberg H.—J. Lipid. Res.—1993, 34:167-179).
The Hep G2 cells are cultured in a Dulbecco's modified Eagle medium containing 10% foetal calf serum (DMEM and FCS—Gibco) in 96-well plates in an atmosphere of 5% carbon dioxide for 24 hours (about 70% confluence).
The test compounds are dissolved at 2 or 10 mM in dimethyl sulphoxide (DMSO). Serial dilutions (1:3.16) are performed in DMSO and added (1:200—Robot Multim Beckman) to the growth medium (200 microlitres) and finally incubated for 24 hours in the various wells containing the Hep G2 cells.
The 24-hour culture supernatant diluted to 1:5 (phosphate-buffered saline: PBS containing 1% bovine serum albumin) is tested according to a sandwich ELISA method which is specific for human apo B.
The results are expressed in terms of IC50, namely the concentration which produces a 50% inhibition of the secretion of apo B in the Hep G2 cells.
On the technique in general: ELISA stands for enzyme-linked immunosorbent assay.

For series [2], the target named is T1, microsomal triglyceride transfer protein (MTP) (Mesocricetus auratus, UniProt P55158).
T1 construct: The supernatant containing the soluble MTP is dialysed; from tissue; host or cells: golden hamster liver microsomes
T1 sequence (P55158 19-895): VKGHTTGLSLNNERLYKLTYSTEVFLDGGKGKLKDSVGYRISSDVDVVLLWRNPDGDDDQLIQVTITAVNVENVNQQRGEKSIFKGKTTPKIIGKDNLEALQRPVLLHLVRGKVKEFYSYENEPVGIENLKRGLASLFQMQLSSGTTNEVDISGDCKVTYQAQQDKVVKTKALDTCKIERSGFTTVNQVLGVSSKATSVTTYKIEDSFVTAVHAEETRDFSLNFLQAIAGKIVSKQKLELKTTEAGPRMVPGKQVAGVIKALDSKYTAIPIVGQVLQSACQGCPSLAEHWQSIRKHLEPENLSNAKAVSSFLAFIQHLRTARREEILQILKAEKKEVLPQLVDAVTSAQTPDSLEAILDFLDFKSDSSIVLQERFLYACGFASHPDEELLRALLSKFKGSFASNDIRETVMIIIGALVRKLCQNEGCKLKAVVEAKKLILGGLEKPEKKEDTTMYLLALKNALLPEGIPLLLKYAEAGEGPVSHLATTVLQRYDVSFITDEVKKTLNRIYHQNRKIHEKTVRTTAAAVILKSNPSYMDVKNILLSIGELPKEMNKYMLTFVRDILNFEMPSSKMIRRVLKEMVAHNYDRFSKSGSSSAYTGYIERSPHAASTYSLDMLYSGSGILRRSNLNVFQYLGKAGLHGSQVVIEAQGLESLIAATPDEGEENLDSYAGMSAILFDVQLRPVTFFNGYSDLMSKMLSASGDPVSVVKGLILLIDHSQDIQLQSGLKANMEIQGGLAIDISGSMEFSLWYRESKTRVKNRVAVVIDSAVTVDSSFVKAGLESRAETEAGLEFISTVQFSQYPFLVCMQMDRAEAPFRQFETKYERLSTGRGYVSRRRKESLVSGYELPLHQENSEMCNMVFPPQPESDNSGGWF
Briefly: Inhibition of the activity of MTP (transfer of labelled triglyceride, SPA). Type of series: biochemical, golden hamster. The conditions noted are these: hamster liver MTP, [3H]-trioleine donor liposomes, biot-LDL acceptor, 18-24 hours at 37° C.; read-out: IC50, concentration which allows a 50% inhibition of MTP. The method, then:
Analysis of th inhibition of the activity of MTP The inhibition of the activity of microsomal triglyceride transfer protein MTP) was tested using the following protocal.
The inhibition of the activity of MTP with a compound may be quantified by observing the inhibition of the transfer of a labeled triglyceride, from a donor particle to an acceptor particle, in the presence of MTP. The procedure for preparing MTP is based on the method by Wetterau and Zilversmit (Biochem. Biophys. Acta (1986) 875 610). A few grams of golden hamster liver are taken and then rinsed several times in a 250 mM sucrose solution at 0° C. All the following steps proceed at +4° C. A 50% homogenate in 250 mM sucrose is prepared using a Teflon mill and then centrifuged for 10 minutes at 10 000×g at +4° C. The supernatant is then centrifuged at 105 000×g for 75 minutes at +4° C. The supematant is removed and the microsomal pellet is taken up in 3 ml (per gram of starting liver) of 150 mM pH 8.0 Tris/HCl. 1 ml aliquot fractions are stored at −80° C. until use.
After thawing a fraction of microsomes (1 ml), 12 ml of refrigerated 50 mM Tris/HCl, 50 mM KCl, 5 mM MgCl2, pH 7.4 buffers and 1.2 ml of deoxycholate (0.54% in water) are added. After incubating for 30 minutes at +4° C. with gentle agitation, the suspension is centrifuged at 105 000×g for 75 minutes. The supernatant containing the soluble MTP is dialysed against 150 mM Tris/HCl, 40 mM NaCl, 1 mM EDTA, 0.02% sodium azide, pH 7.4 buffer (5 times one litre over 2-3 days). […]
The acceptor particles are biotinylated low-density lipoproteins (biot-LDL). […] After incubating for 18-24 hours at 37° C. the reaction is quenched by adding 100 μl of Amersham SPA (Scintillation Proximity Assay) beads coupled to steptavidin and the radioactivity is counted using a Top Count (Packard) at least one hour later. The inhibition of the transfer of triglycerides by a compound is reflected by a reduction in the radioactivity transferred. The percentage of inhibition for a given compound is determined relative to controls which contain no compounds in the reaction mixture. […]

As for `Cc1cccc(CN2CCC(NC(=O)c3ccccc3-c3ccc(C(F)(F)F)cc3)CC2)n1` [A-5, 1-[(6-methyl-2-pyridyl)methyl]-4-[(4′-trifluoromethyl-2-biphenyl)carbonylamino]-piperidine], the melting point turned out to be 170 °C. Moreover, in series [1], the IC50 was determined as 3 nM. Besides, the IC50 in series [2] was determined as 65 nM.

For `Cc1ncccc1CN1CCC(NC(=O)c2ccccc2-c2ccc(C(F)(F)F)cc2)CC1` [A-7, 1-[(2-methyl-3-pyridyl)methyl]-4-[(4′-trifluoromethyl-2-biphenyl)carbonylamino]-piperidine], the IC50 in series [1] was found to be 74 nM; in series [2], 84 nM.

For `O=C(NC1CCN(Cc2ccc3ccccc3n2)CC1)c1ccccc1-c1ccc(C(F)(F)F)cc1` [A-8, 1-(2-quinolylmethyl)-4-[(4′-trifluoromethyl-2-biphenyl)carbonylamino]-piperidine], the melting point stood at 210 °C. In addition, in series [1], the IC50 stood at 2 nM. The IC50 in series [2] was found to be 26 nM.
